From EP4745134A1 (Jiangsu Yahong Meditech Co., Ltd., priority 2023, dated 2025)

Assays:
[1] = test system: HCT116-WT cells; assay: Inhibitory activity against cell proliferation (CellTiter Glo, 6 days), HCT116-WT; assay type: cell-based; settings: 144 h, HCT116-WT cells, 6 days, CellTiter Glo; read-out: HCT116-WT IC50
Procedure, shortened: (§1)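 Luminescence read-out (CellTiter Glo, 10 min shaking at room temperature) after 6 days of compound exposure; IC50 fitted against DMSO controls. Top dose 10000 nM, 4-fold steps, 8 points; 250 cells/well in McCoy's 5A + 10% FBS.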

[2] = test system: HCT116 MTAP KO cells; assay: Inhibitory activity against cell proliferation (CellTiter Glo, 6 days), HCT116 MTAP KO; assay type: cell-based; settings: for IC50: Homo sapiens, HCT-116, 144 h, HCT116 MTAP KO cells, 6 days, CellTiter Glo, read-out: HCT116 MTAP KO IC50; for Selectivity HCT 116-WT/ HCT116 MTAP KO: ratio of IC50 HCT116-WT / HCT116 MTAP KO
Procedure, shortened: as §1

[3] = target: PRMT5-MTA (Homo sapiens, UniProt O14744); assay: Enzymatic inhibitory activity against PRMT5-MTA (AlphaScreen); assay type: biochemical; settings: read-out: IC50
Sequence of PRMT5-MTA (O14744 whole entry): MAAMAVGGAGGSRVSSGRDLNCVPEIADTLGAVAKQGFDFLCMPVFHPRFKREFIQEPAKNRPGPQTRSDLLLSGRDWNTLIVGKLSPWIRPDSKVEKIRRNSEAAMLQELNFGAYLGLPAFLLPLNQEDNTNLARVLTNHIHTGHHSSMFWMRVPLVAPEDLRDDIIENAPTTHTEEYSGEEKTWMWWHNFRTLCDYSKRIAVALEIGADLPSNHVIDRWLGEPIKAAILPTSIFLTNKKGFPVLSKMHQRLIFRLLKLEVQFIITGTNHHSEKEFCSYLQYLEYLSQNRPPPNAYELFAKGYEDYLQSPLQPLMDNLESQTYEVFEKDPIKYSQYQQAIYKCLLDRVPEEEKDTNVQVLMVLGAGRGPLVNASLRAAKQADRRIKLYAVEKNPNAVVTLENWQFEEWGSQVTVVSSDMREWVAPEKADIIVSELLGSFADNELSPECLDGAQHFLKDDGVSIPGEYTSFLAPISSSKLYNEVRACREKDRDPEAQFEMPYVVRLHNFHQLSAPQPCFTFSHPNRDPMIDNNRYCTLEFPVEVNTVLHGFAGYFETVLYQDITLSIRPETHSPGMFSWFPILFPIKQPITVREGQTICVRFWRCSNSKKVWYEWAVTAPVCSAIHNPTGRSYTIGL
Sequence of PRMT5-MTA (Q9BQA1 whole entry partner): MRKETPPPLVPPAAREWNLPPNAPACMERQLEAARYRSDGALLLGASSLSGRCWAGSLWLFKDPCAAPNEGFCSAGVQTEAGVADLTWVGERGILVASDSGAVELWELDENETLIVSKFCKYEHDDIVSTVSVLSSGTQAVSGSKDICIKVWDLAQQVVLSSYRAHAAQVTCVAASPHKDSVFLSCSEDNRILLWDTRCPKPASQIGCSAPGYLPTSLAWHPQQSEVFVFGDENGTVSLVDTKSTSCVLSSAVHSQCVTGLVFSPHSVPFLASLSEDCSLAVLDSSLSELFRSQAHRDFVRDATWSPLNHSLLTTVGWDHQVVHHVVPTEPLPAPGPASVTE
Procedure, shortened: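 PRMT5/[…] (1 nM) was preincubated for 30 min at room temperature with 1 µM […] and 2.5 µM SAM, then exposed to compound (10-point, 3-fold from 1000 nM) for 15 min at 23 °C. Histone H4 substrate (5 nM) was added and reacted for 45 min at 23 °C. Symmetric dimethyl-R3 H4 was detected by AlphaScreen and IC50 calculated.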

Row | SMILES | IC50 [1] | IC50 [2] | Selectivity HCT 116-WT/ HCT116 MTAP KO [2] | IC50 [3]
1 | Cc1cc2cc(C(=O)N(Cc3ccc(C(F)(F)F)cn3)N(C)c3nccc(C(F)(F)F)n3)ccc2nc1N [Example 40, 2-amino-N',3-dimethyl-N-((5-(trifluoromethyl)pyridin-2-yl)methyl)-N'-(4-(trifluor omethyl)pyrimidin-2-yl)quinoline-6-carb ohydrazide] | 2590 nM | 83 nM | 31.19 | 1.7 nM
2 | Cc1cc2cc(C(=O)N(Cc3ccc(C(F)(F)F)cn3)N(C)c3nccc4occc34)ccc2nc1N [Example 42, 2-amino-N'-(furo[3,2-c]pyridin-4-yl)-N', 3-dimethyl-N-((5-(trifluoromethyl)pyridin-2-yl)methyl)quinoline-6-carbohydrazide] | 2650 nM | 49 nM | 54.14 | 3 nM
3 | Cc1cc2cc(C(=O)N(Cc3ccc(Br)cn3)N(C)c3ncccc3F)ccc2nc1N [Example 48, 2-amino-N-((5-bromopyridin-2-yl)methyl)-N'-(3-fluoropyridin-2-yl)-N',3-dimethyl quinoline-6-carbohydrazide] | 466 nM | 13 nM | 35.85 | 3.7 nM
4 | Cc1ccnc(N(C)N(Cc2ccc(C(F)(F)F)cn2)C(=O)c2ccc3nc(N)c(C)cc3c2)n1 [Example 49, 2-amino-N',3-dimethyl-N'-(4-methylpyrimidin-2-yl)-N-((5-(trifluoromethyl)pyridin-2-yl)methyl)quinoline-6-carbohydrazide] | 1770 nM | 80 nM | 22.18 | 2.2 nM
5 | Cc1cc2cc(C(=O)N(Cc3ccc(C(F)(F)F)cn3)N(C)c3ncc(Br)cn3)ccc2nc1N [Example 50, 2-amino-N'-(5-bromopyrimidin-2-yl)-N', 3-dimethyl-N-((5-(trifluoromethyl)pyridin-2-yl)methyl)quinoline-6-carbohydrazide] | 3800 nM | 219 nM | 17.33 | 2.1 nM
6 | Cc1cc2cc(C(=O)N(Cc3ccc4ccccc4n3)N(C)c3ncccn3)ccc2nc1N [Example 51, 2-amino-N',3-dimethyl-N'-(pyrimidin-2-yl)-N-(quinolin-2-ylmethyl)quinoline-6-carbohydrazide] | 2060 nM | 116 nM | 17.78 | 1.7 nM
7 | CN(c1ccccc1)N(Cc1ccc(C(F)(F)F)cn1)C(=O)c1ccc2nc(N)c3cnn(C)c3c2c1 [Example 52, 4-amino-N',1-dimethyl-N'-phenyl-N-((5-(trifluoromethyl)pyridin-2-yl)methyl)-1H-pyrazolo[4,3-c]quinoline-8-carbohydrazide] | 417 nM | 13 nM | 32.08 | 3.7 nM
8 | Cc1cc2cc(C(=O)N(Cc3ccc(C(F)(F)F)cn3)N(C)c3ncccc3C(F)(F)F)ccc2nc1N [Example 53, 2-amino-N',3-dimethyl-N'-(3-(trifluoromethyl)pyridin-2-yl)-N-((5-(trifluoromethy 1)pyridin-2-yl)methyl)quinoline-6-carbohydrazide] | 2280 nM | 90 nM | 25.34 | 1.5 nM
9 | Cc1cc2cc(C(=O)N(Cc3ccc(C(F)(F)F)cn3)Nc3ncccc3F)ccc2nc1N [Example 56, 2-amino-N'-(3-fluoropyridin-2-yl)-3-met hyl-N-((5-(trifluoromethyl)pyridin-2-yl)methyl)quinoline-6-carbohydrazide] | 3330 nM | 139 nM | 23.99 | 3.5 nM
10 | Cc1cc2cc(C(=O)N(Cc3ccc(C(F)(F)F)cn3)N(C)c3ncc(OC(F)F)cn3)ccc2nc1N [Example 57, 2-amino-N'-(5-(difluoromethoxy)pyrimidin-2-yl)-N',3-dimethyl-N-((5-(trifluoromethyl)pyridin-2-yl)methyl)quinoline-6-carbohydrazide] | 5640 nM | 490 nM | 11.51 | 1.9 nM
11 | Cc1cc2cc(C(=O)N(Cc3ccc(C(F)(F)F)cn3)N(C)c3ncc(C#N)cn3)ccc2nc1N [Example 58, 2-amino-N'-(5-cyanopyrimidin-2-yl)-N',3-dimethyl-N-((5-(trifluoromethyl)pyridin-2-yl)methyl)quinoline-6-carbohydrazide] | 3130 nM | 210 nM | 14.92 | 4 nM
12 | Cc1cc2cc(C(=O)N(Cc3ccc(C(F)(F)F)cn3)Nc3ncccn3)ccc2nc1N [Example 59, 2-amino-3-methyl-N'-(pyrimidin-2-yl)-N-((5-(trifluoromethyl)pyridin-2-yl)methyl) quinoline-6-carbohydrazide] | 4220 nM | 257 nM | 16.43 | 2 nM
13 | Cc1cc2cc(C(=O)N(Cc3ccc(Br)cn3)N(C)c3ncccc3C(F)(F)F)ccc2nc1N [Example 60, 2-amino-N-((5-bromopyridin-2-yl)methyl)-N',3-dimethyl-N'-(3-(trifluoromethyl)pyridin-2-yl)quinoline-6-carbohydrazide] | 708 nM | 60 nM | 11.80 | 2.3 nM
14 | Cc1cc2cc(C(=O)N(Cc3cc(C(F)(F)F)ccn3)N(C)c3ncccn3)ccc2nc1N [Example 61, 2-amino-N',3-dimethyl-N'-(pyrimidin-2-yl)-N-((4-(trifluoromethyl)pyridin-2-yl)methyl)quinoline-6-carbohydrazide] | 2390 nM | 126 nM | 18.95 | 2.4 nM
15 | [2H]C([2H])([2H])N(c1nccc2nccnc12)N(Cc1ccc(C(F)(F)F)cn1)C(=O)c1ccc2nc(N)c(C)cc2c1 [Example 62] | 1500 nM | 86 nM | 17.42 | 5.1 nM
16 | [2H]C([2H])([2H])N(c1nccc2nccnc12)N(Cc1ccc(Br)cn1)C(=O)c1ccc2nc(N)c(C)cc2c1 [Example 63, 2-amino-N-((5-bromopyridin-2-yl)methyl)-3-methyl-N'-(methyl-d3)-N'-(pyrido[3,4-b]pyrazin-5-yl)quinoline-6-carbohydrazide] | 1010 nM | 53 nM | 19.02 | 3.2 nM
17 | [2H]C([2H])([2H])N(c1ncccn1)N(Cc1ccc(Br)cn1)C(=O)c1ccc2nc(N)c(C)cc2c1 [Example 64, 2-amino-N-((5-bromopyridin-2-yl)methyl)-3-methyl-N'-(methyl-d3)-N'-(pyrimidin-2-yl)quinoline-6-carbohydrazide] | 918 nM | 38 nM | 24.16 | 1.7 nM
18 | Cc1cc2cc(C(=O)N(Cc3ccc(C(F)(F)F)cn3)N(c3nccc4nccnc34)C3CC3)ccc2nc1N [Example 65, 2-amino-N'-cyclopropyl-3-methyl-N'-(pyrido[3,4-b]pyrazin-5-yl)-N-((5-(trifluoromethyl)pyridin-2-yl)methyl)quinoline-6-carbohydrazide] | 2150 nM | 48 nM | 44.77 | 4 nM
19 | Cc1cc2cc(C(=O)N(Cc3ccc(C(F)(F)F)cn3)N(C)c3ncccc3Cl)ccc2nc1N [Example 66, 2-amino-N'-(3-chloropyridin-2-yl)-N',3-d imethyl-N-((5-(trifluoromethyl)pyridin-2-yl)methyl)quinoline-6-carbohydrazide] | 1990 nM | 124 nM | 16.06 | 3.9 nM
20 | Cc1cc2cc(C(=O)N(Cc3ccc(Br)cn3)N(C)c3ncccn3)ccc2nc1N [Example 67, 2-amino-N-((5-bromopyridin-2-yl)methyl)-N',3-dimethyl-N'-(pyrimidin-2-yl)quin oline-6-carbohydrazide] | 1600 nM | 40 nM | 40.08 | 1.5 nM
21 | Cc1cc2cc(C(=O)N(Cc3ccc(C(F)(F)F)cn3)N(C)c3ncc(Cl)cn3)ccc2nc1N [Example 69, 2-amino-N'-(5-chloropyrimidin-2-yl)-N', 3-dimethyl-N-((5-(trifluoromethyl)pyridin-2-yl)methyl)quinoline-6-carbohydrazide] | 3160 nM | 216 nM | 14.63 | 2.4 nM
22 | Cc1cc2cc(C(=O)N(Cc3ccc(Br)cc3F)N(C)c3nccc4nccnc34)ccc2nc1N [Example 72, 2-amino-N-(4-bromo-2-fluorobenzyl)-N', 3-dimethyl-N'-(pyrido[3,4-b]pyrazin-5-yl)quinoline-6-carbohydrazide] | 1610 nM | 92 nM | 17.50 | 2.7 nM
23 | Cc1cc2cc(C(=O)N(Cc3ccc(Br)cn3)N(C)c3nccc4nccnc34)ccc2nc1N [Example 73, 2-amino-N-((5-bromopyridin-2-yl)methyl)-N',3-dimethyl-N'-(pyrido[3,4-b]pyrazin-5-yl)quinoline-6-carbohydrazide] | 1200 nM | 40 nM | 29.88 | 2.5 nM
